# Measured values published in US6737383B1, “Herbicidal oxadiazolidines” (priority 1999, dated 2004).
# Columns and labels:
# [1] = tested on: velvetleaf; assay: Test B pre/postemergence velvetleaf; type: in vivo, Abutilon theophrasti
# Procedure, shortened: (§1)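 Response is a visual 0-to-10 score relative to untreated plants, where 0 means no effect and 10 means complete control, taken twelve to sixteen days after application. Treatments went onto soil at planting and onto foliage of 1- to 4-leaf plants, using a surfactant-containing non-phytotoxic solvent.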
# [2] = tested on: rape; assay: Test B pre/postemergence rape; type: in vivo, Brassica napus
# Procedure, shortened: as §1
# [3] = tested on: bamyardgrass; assay: Test B flood test barnyardgrass; type: in vivo, Echinochloa crus-galli; details: Pre-emergence
# Procedure, shortened: (§2)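 Plants were grown to the 2-leaf stage before treatment with test chemical, then held in a greenhouse for twelve to sixteen days. Injury was visually rated against untreated controls on a 0–10 scale, where 0 is no effect and 10 is complete control.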
# [4] = tested on: sugar beet; assay: Test B pre/postemergence sugar beet; type: in vivo, Beta vulgaris
# Procedure, shortened: as §1
# [5] = tested on: crabgrass; assay: Test B pre/postemergence crabgrass; type: in vivo, Digitaria sanguinalis
# Procedure, shortened: as §1
# [6] = tested on: corn; assay: Test B pre/postemergence corn; type: in vivo, Zea mays
# Procedure, shortened: as §1
# [7] = tested on: smallflower flatsedge; assay: Test B flood test smallflower flatsedge; type: in vivo, Cyperus difformis; details: Pre-emergence
# Procedure, shortened: as §2
# [8] = tested on: cocklebur; assay: Test B pre/postemergence cocklebur; type: in vivo, Xanthium strumarium
# Procedure, shortened: as §1
# [9] = tested on: blackgrass; assay: Test B pre/postemergence blackgrass; type: in vivo, Alopecurus myosuroides
# Procedure, shortened: as §1
# [10] = tested on: wild oat; assay: Test B pre/postemergence wild oat; type: in vivo, Avena fatua
# Procedure, shortened: as §1
# [11] = tested on: surinam grass; assay: Test B pre/postemergence surinam grass; type: in vivo, Brachiaria decumbens
# Procedure, shortened: as §1
# [12] = tested on: purple nutsedge; assay: Test B pre/postemergence purple nutsedge; type: in vivo, Cyperus rotundus
# Procedure, shortened: as §1
# [13] = tested on: rice; assay: Test B flood test rice; type: in vivo, Oryza sativa; details: Pre-emergence
# Procedure, shortened: as §2
# [14] = tested on: soybean; assay: Test B pre/postemergence soybean; type: in vivo, Glycine max
# Procedure, shortened: as §1
# [15] = tested on: wheat; assay: Test B pre/postemergence wheat; type: in vivo, Triticum aestivum
# Procedure, shortened: as §1
# [16] = tested on: duck salad; assay: Test B flood test duck salad; type: in vivo, Heteranthera limosa; details: Pre-emergence
# Procedure, shortened: as §2
# [17] = tested on: bedstraw; assay: Test B pre/postemergence bedstraw; type: in vivo, Galium aparine
# Procedure, shortened: as §1
# [18] = Postemergence, Rate 1000 g/ha, scale 0 to 10 (0 no effect, 10 complete control)
# [19] = Preemergence, Rate 250 g/ha, scale of 0 to 10 where 0 is no effect and 10 is complete control
# [20] = Preemergence, Rate 500 g/ha, scale of 0 to 10 where 0 is no effect and 10 is complete control
# [21] = Rate 125 g/ha, Postemergence, scale of 0 to 10 where 0 is no effect and 10 is complete control
# [22] = Rate 125 g/ha, Preemergence, scale of 0 to 10 where 0 is no effect and 10 is complete control
# [23] = Rate 250 g/ha, Postemergence, scale of 0 to 10 where 0 is no effect and 10 is complete control
# [24] = Rate 500 g/ha, Postemergence, scale 0 to 10, 0 no effect, 10 complete control
# [25] = Rate 1000 g/ha, Preemergence, scale 0 to 10 (0 no effect, 10 complete control)
# [26] = Rate 1000 g/ha, scale 0 to 10 (0 no effect, 10 complete control)
# [27] = Rate 125 g/ha, flood test species, scale 0 to 10 where 0 is no effect and 10 is complete control
# [28] = Rate 250 g/ha, flood-test species, scale 0 to 10, 0 is no effect, 10 is complete control
# [29] = Rate 500 g/ha, flood test species, scale 0 to 10 (0 no effect, 10 complete control)
smiles,measurement,setting,value
C=CCn1c(=O)on(C(=O)N(c2ccc(F)cc2)C(C)C(=O)OCC)c1=O (stereo not drawn) [Compound 279],Velvetleaf plant response rating,[1]; [18],0
same,Velvetleaf plant response rating,[1]; [19],0
same,"Plant response rating, Velvetleaf",[1]; [20],0
same,Velvetleaf plant response rating,[1]; [21],0
same,Velvetleaf plant response rating,[1]; [22],0
same,"Plant response rating, Velvetleaf",[1]; [23],0
same,Velvetleaf plant response rating,[1]; [24],0
same,"Plant response rating, Velvetleaf",[1]; [25],0
same,Rape plant response rating,[2]; [18],0
same,Rape plant response rating,[2]; [19],0
same,"Plant response rating, Rape",[2]; [20],0
same,Rape plant response rating,[2]; [21],0
same,Rape plant response rating,[2]; [22],0
same,"Plant response rating, Rape",[2]; [23],0
same,Rape plant response rating,[2]; [24],0
same,"Plant response rating, Rape",[2]; [25],0
same,Barnyardgrass plant response rating,[3]; [26],0
same,Barnyardgrass plant response rating,[3]; [27],0
same,Barnyardgrass plant response rating,[3]; [28],0
same,Barnyardgrass plant response rating,[3]; [29],0
same,Sugarbeets plant response rating,[4]; [18],4
same,Sugarbeets plant response rating,[4]; [19],0
same,"Plant response rating, Sugarbeets",[4]; [20],0
same,Sugarbeets plant response rating,[4]; [21],0
same,Sugarbeets plant response rating,[4]; [22],0
same,"Plant response rating, Sugarbeets",[4]; [23],0
same,Sugarbeets plant response rating,[4]; [24],0
same,"Plant response rating, Sugarbeets",[4]; [25],0
same,Crabgrass plant response rating,[5]; [19],0
same,"Plant response rating, Crabgrass",[5]; [20],1
same,Crabgrass plant response rating,[5]; [21],0
same,Crabgrass plant response rating,[5]; [22],0
same,"Plant response rating, Crabgrass",[5]; [23],0
same,Crabgrass plant response rating,[5]; [24],0
same,"Plant response rating, Crabgrass",[5]; [25],4
same,Corn plant response rating,[6]; [18],0
same,Corn plant response rating,[6]; [19],0
same,"Plant response rating, Corn",[6]; [20],0
same,Corn plant response rating,[6]; [21],0
same,Corn plant response rating,[6]; [22],0
same,"Plant response rating, Corn",[6]; [23],0
same,Corn plant response rating,[6]; [24],0
same,"Plant response rating, Corn",[6]; [25],0
same,S. Flatsedge plant response rating,[7]; [26],0
same,S. Flatsedge plant response rating,[7]; [27],0
same,S. Flatsedge plant response rating,[7]; [28],0
same,S. Flatsedge plant response rating,[7]; [29],0
same,Cocklebur plant response rating,[8]; [18],0
same,"Plant response rating, Cocklebur",[8]; [20],0
same,Cocklebur plant response rating,[8]; [21],0
same,"Plant response rating, Cocklebur",[8]; [23],0
same,Cocklebur plant response rating,[8]; [24],0
same,"Plant response rating, Cocklebur",[8]; [25],0
same,Blackgrass plant response rating,[9]; [18],6
same,Blackgrass plant response rating,[9]; [19],0
same,"Plant response rating, Blackgrass",[9]; [20],0
same,Blackgrass plant response rating,[9]; [21],0
same,Blackgrass plant response rating,[9]; [22],0
same,"Plant response rating, Blackgrass",[9]; [23],2
same,Blackgrass plant response rating,[9]; [24],4
same,"Plant response rating, Blackgrass",[9]; [25],0
same,Wild oats plant response rating,[10]; [18],0
same,Wild oats plant response rating,[10]; [19],0
same,"Plant response rating, Wild oats",[10]; [20],0
same,Wild oats plant response rating,[10]; [21],0
same,"Plant response rating, Wild oats",[10]; [23],0
same,Wild oats plant response rating,[10]; [24],0
same,"Plant response rating, Wild oats",[10]; [25],0
same,B. signalgrass plant response rating,[11]; [18],0
same,B. signalgrass plant response rating,[11]; [19],0
same,"Plant response rating, B. signalgrass",[11]; [20],0
same,B. signalgrass plant response rating,[11]; [21],0
same,B. signalgrass plant response rating,[11]; [22],0
same,"Plant response rating, B. signalgrass",[11]; [23],0
same,B. signalgrass plant response rating,[11]; [24],0
same,"Plant response rating, B. signalgrass",[11]; [25],0
same,Nutsedge plant response rating,[12]; [18],0
same,Nutsedge plant response rating,[12]; [19],0
same,Nutsedge plant response rating,[12]; [21],0
same,"Plant response rating, Nutsedge",[12]; [23],0
same,Nutsedge plant response rating,[12]; [24],0
same,"Plant response rating, Nutsedge",[12]; [25],0
same,Rice plant response rating,[13]; [26],0
same,Rice plant response rating,[13]; [27],0
same,Rice plant response rating,[13]; [28],0
same,Rice plant response rating,[13]; [29],0
same,Soybean plant response rating,[14]; [18],4
same,Soybean plant response rating,[14]; [19],0
same,"Plant response rating, Soybean",[14]; [20],0
same,Soybean plant response rating,[14]; [21],0
same,Soybean plant response rating,[14]; [22],0
same,"Plant response rating, Soybean",[14]; [23],2
same,Soybean plant response rating,[14]; [24],4
same,"Plant response rating, Soybean",[14]; [25],0
same,Wheat plant response rating,[15]; [18],1
same,Wheat plant response rating,[15]; [19],0
same,"Plant response rating, Wheat",[15]; [20],0
same,Wheat plant response rating,[15]; [21],0
same,Wheat plant response rating,[15]; [22],0
same,"Plant response rating, Wheat",[15]; [23],0
same,Wheat plant response rating,[15]; [24],0
same,"Plant response rating, Wheat",[15]; [25],0
same,Ducksalad plant response rating,[16]; [26],0
same,Ducksalad plant response rating,[16]; [27],0
same,Ducksalad plant response rating,[16]; [28],0
same,Ducksalad plant response rating,[16]; [29],0
same,Bedstraw plant response rating,[17]; [18],0
same,Bedstraw plant response rating,[17]; [19],0
same,"Plant response rating, Bedstraw",[17]; [20],0
same,Bedstraw plant response rating,[17]; [21],0
same,Bedstraw plant response rating,[17]; [22],0
same,"Plant response rating, Bedstraw",[17]; [23],0
same,Bedstraw plant response rating,[17]; [24],0
same,"Plant response rating, Bedstraw",[17]; [25],0
